Assay results: US20050222173A1, “Triazolopyrimidines” (priority 2002, published 2005)

Experiment: logP determination by HPLC (EEC Directive 79/831 Annex V. A8)
Details: HPLC, gradient method, acetonitrile/0.1% aqueous phosphoric acid

Row | Structure (SMILES) | log.P
1 | CC(Nc1c(-c2c(F)cc(F)cc2F)c(Cl)nc2nc(N(C)C)nn12)C(F)(F)F (stereo not shown) [Example 3] | 3.52
2 | CC(C)NNc1c(-c2c(F)cc(F)cc2F)c(Cl)nc2nc(N(C)C)nn12 [Example 4] | 3.33
3 | Fc1cc(F)c(-c2c(Cl)nc3nc(Cl)nn3c2N2CCOCC2)c(F)c1 [Example 5] | 2.99
4 | CC1CN(c2c(-c3c(F)cc(F)cc3F)c(Cl)nc3nc(Cl)nn23)CC(C)O1 (stereo not shown) [Example 6] | 3.72
5 | CCNc1c(-c2c(F)cc(F)cc2F)c(Cl)nc2nc(Cl)nn12 [Example 7] | 3.07
6 | Fc1cc(F)c(-c2c(Cl)nc3nc(Cl)nn3c2N2CCCC2)c(F)c1 [Example 8] | 3.46
7 | CCN(CC)c1c(-c2c(F)cc(F)cc2F)c(Cl)nc2nc(Cl)nn12 [Example 9] | 3.85
8 | CCCNc1c(-c2c(F)cc(F)cc2F)c(Cl)nc2nc(Cl)nn12 [Example 10] | 3.37
9 | Fc1cc(F)c(-c2c(Cl)nc3nc(Cl)nn3c2NC2CCCC2)c(F)c1 [Example 11] | 3.9
10 | COCCNc1c(-c2c(F)cc(F)cc2F)c(Cl)nc2nc(Cl)nn12 [Example 12] | 2.91
11 | CNc1c(-c2c(F)cc(F)cc2F)c(Cl)nc2nc(Cl)nn12 [Example 13] | 2.67
12 | Fc1cc(F)c(-c2c(Cl)nc3nc(Cl)nn3c2NC2CC2)c(F)c1 [Example 14] | 3.1
13 | Fc1cc(F)c(-c2c(Cl)nc3nc(Cl)nn3c2N2CCSCC2)c(F)c1 [Example 15] | 3.68
14 | Fc1cc(F)c(-c2c(Cl)nc3nc(Cl)nn3c2NN2CCOCC2)c(F)c1 [Example 16] | 2.74
15 | CC(NNc1c(-c2ccccc2Cl)c(Cl)nc2nc(Cl)nn12)C1CC1 (stereo not shown) [Example 17] | 3.55
16 | FC(F)C(F)(F)CNNc1c(-c2ccccc2Cl)c(Cl)nc2nc(Cl)nn12 [Example 18] | 3.59
17 | Clc1nc2nc(Cl)c(-c3ccccc3Cl)c(NCC3CC3)n2n1 [Example 19] | 3.55
18 | OCCNc1c(-c2ccccc2Cl)c(Cl)nc2nc(Cl)nn12 [Example 21] | 2.18
19 | CC(C)(C)Nc1c(-c2ccccc2Cl)c(Cl)nc2nc(Cl)nn12 [Example 22] | 3.99
20 | CC(Nc1c(-c2c(F)cc(F)cc2F)c(Cl)nc2nc(Cl)nn12)C1CCCCC1 (stereo not shown) [Example 23] | 4.87
21 | OCCNc1c(-c2c(F)cc(F)cc2F)c(Cl)nc2nc(Cl)nn12 [Example 24] | 2.23
22 | CC(C)(C)Nc1c(-c2c(F)cc(F)cc2F)c(Cl)nc2nc(Cl)nn12 [Example 25] | 3.9

Row | Structure (SMILES) | log.P
23 | CN(C)c1c(-c2ccccc2Cl)c(Cl)nc2nc(Cl)nn12 [Example 26] | 3.18
24 | Clc1nc2nc(Cl)c(-c3ccccc3Cl)c(N3CCOCC3)n2n1 [Example 27] | 3.03
25 | CC1CN(c2c(-c3ccccc3Cl)c(Cl)nc3nc(Cl)nn23)CC(C)O1 (stereo not shown) [Example 28] | 3.81
26 | CCNc1c(-c2ccccc2Cl)c(Cl)nc2nc(Cl)nn12 [Example 29] | 3.07
27 | Clc1nc2nc(Cl)c(-c3ccccc3Cl)c(N3CCCC3)n2n1 [Example 30] | 3.59
28 | CCN(CC)c1c(-c2ccccc2Cl)c(Cl)nc2nc(Cl)nn12 [Example 31] | 3.99
29 | Clc1nc2nc(Cl)c(-c3ccccc3Cl)c(N3CCCCC3)n2n1 [Example 32] | 4.18
30 | CCCNc1c(-c2ccccc2Cl)c(Cl)nc2nc(Cl)nn12 [Example 33] | 3.46
31 | Clc1nc2nc(Cl)c(-c3ccccc3Cl)c(NC3CCCC3)n2n1 [Example 34] | 4.03
32 | COCCNc1c(-c2ccccc2Cl)c(Cl)nc2nc(Cl)nn12 [Example 35] | 2.91
33 | CNc1c(-c2ccccc2Cl)c(Cl)nc2nc(Cl)nn12 [Example 36] | 2.7
34 | Clc1nc2nc(Cl)c(-c3ccccc3Cl)c(NC3CC3)n2n1 [Example 37] | 3.18
35 | Clc1nc2nc(Cl)c(-c3ccccc3Cl)c(N3CCSCC3)n2n1 [Example 38] | 3.76
36 | CN(C)Nc1c(-c2ccccc2Cl)c(Cl)nc2nc(Cl)nn12 [Example 40] | 3.18
37 | COC(=O)N(C)Nc1c(-c2ccccc2Cl)c(Cl)nc2nc(Cl)nn12 [Example 41] | 2.55
38 | Clc1nc2nc(Cl)c(-c3ccccc3Cl)c(NC3CCCCC3)n2n1 [Example 42] | 4.32
39 | CC(C)Nc1c(-c2c(F)cc(F)cc2F)c(Cl)nc2nc(Br)nn12 [Example 43] | 3.4
40 | CC(C)Nc1c(-c2ccccc2Cl)c(Cl)nc2nc(Br)nn12 [Example 45] | 3.45
41 | Fc1cc(F)c(-c2c(Cl)nc3nc(Cl)nn3c2N2CCC(C(F)(F)F)CC2)c(F)c1 [Example 46] | 5
42 | CC(C)Nc1c(-c2c(F)cc(F)cc2F)c(Cl)nc2nc(Cl)nn12 [Example 47] | 3.36
43 | CC(C)CN(N)c1c(-c2c(F)cc(F)cc2F)c(Cl)nc2nc(Cl)nn12 [Example 48] | 3.67
44 | Fc1cc(F)c(-c2c(Cl)nc3nc(Br)nn3c2N2CCOCC2)c(F)c1 [Example 49] | 3.03

Row | Structure (SMILES) | log.P
45 | CC1CN(c2c(-c3c(F)cc(F)cc3F)c(Cl)nc3nc(Br)nn23)CC(C)O1 (stereo not shown) [Example 50] | 3.72
46 | CCNc1c(-c2c(F)cc(F)cc2F)c(Cl)nc2nc(Br)nn12 [Example 51] | 3.07
47 | Fc1cc(F)c(-c2c(Cl)nc3nc(Br)nn3c2N2CCCC2)c(F)c1 [Example 52] | 3.5
48 | CCN(CC)c1c(-c2c(F)cc(F)cc2F)c(Cl)nc2nc(Br)nn12 [Example 53] | 3.9
49 | CCCNc1c(-c2c(F)cc(F)cc2F)c(Cl)nc2nc(Br)nn12 [Example 54] | 3.41
50 | COCCNc1c(-c2c(F)cc(F)cc2F)c(Cl)nc2nc(Br)nn12 [Example 55] | 2.99
51 | Fc1cc(F)c(-c2c(Cl)nc3nc(Br)nn3c2NC2CC2)c(F)c1 [Example 56] | 3.14
52 | Fc1cc(F)c(-c2c(Cl)nc3nc(Br)nn3c2NN2CCOCC2)c(F)c1 [Example 57] | 2.77
53 | CC(C)(C)Nc1c(-c2c(F)cc(F)cc2F)c(Cl)nc2nc(Br)nn12 [Example 58] | 3.9
54 | CN(C)c1c(-c2c(F)cc(F)cc2F)c(Cl)nc2nc(Br)nn12 [Example 59] | 3.14
55 | Fc1cc(F)c(-c2c(Cl)nc3nc(Br)nn3c2NC2CCCC2)c(F)c1 [Example 60] | 3.94
56 | Fc1cc(F)c(-c2c(Cl)nc3nc(Br)nn3c2N2CCSCC2)c(F)c1 [Example 61] | 3.72
57 | Fc1cc(F)c(-c2c(Cl)nc3nc(Br)nn3c2NCC2CC2)c(F)c1 [Example 62] | 3.5
58 | CCC(C)Nc1c(-c2c(F)cc(F)cc2F)c(Cl)nc2nc(Br)nn12 (stereo not shown) [Example 64] | 3.76
59 | CC(C)CN(N)c1c(-c2c(F)cc(F)cc2F)c(Cl)nc2nc(Br)nn12 [Example 65] | 3.67
60 | CC(C)(Nc1c(-c2c(F)cc(F)cc2F)c(Cl)nc2nc(Cl)nn12)C(F)(F)F [Example 66] | 3.28
61 | Fc1cc(F)c(-c2c(Cl)nc3nc(Cl)nn3c2N2CCCCC2C(F)(F)F)c(F)c1 (stereo not shown) [Example 67] | 3.28
62 | CON(C)c1c(-c2c(F)cc(F)cc2F)c(Cl)nc2nc(Br)nn12 [Example 68] | 3.39
63 | CCC(C)CNc1c(-c2c(F)cc(F)cc2F)c(Cl)nc2nc(Cl)nn12 (stereo not shown) [Example 69] | 4.04
64 | CCC(C)Nc1c(-c2ccccc2Cl)c(Cl)nc2nc(Cl)nn12 (stereo not shown) [Example 70] | 3.79
